Values of other authors in patent publication US7115565B2, “Chemotherapeutic microemulsion compositions of paclitaxel with improved oral bioavailability” (Pharmacia & Upjohn Company, priority 2001, dated 2006).

Details: reported in the background

oral bioavailability: very low
Compound: CC(=O)O[C@H]1C(=O)[C@@]2(C)[C@H]([C@H](OC(=O)c3ccccc3)[C@]3(O)C[C@H](OC(=O)[C@H](O)[C@@H](NC(=O)c4ccccc4)c4ccccc4)C(C)=C1C3(C)C)[C@]1(OC(C)=O)CO[C@@H]1C[C@@H]2O [Paclitaxel]
